Assay results published in patent publication US20170260134A1, “Ceramide Analogs” (Augusta University Research Institute, Inc., priority 2016, published 2017).
“Also recorded” adds a separate entry of the source.

Experiments:
[1] = tested on: CT26 cells; experiment: CT26 colon carcinoma lung metastasis in BALB/c mice; assay type: in vivo; details: 25 and 50 kg body weight, intraperitoneal, days 8, 10 and 12 after tumor injection
Procedure: FIG. 8 is a bar graph of number of tumor nodules/lung in lungs taken from BALB/c mice injected with CT26 cells (2.5×10^5 cell per mouse). Tumor-bearing mice were treated with the indicated 5 ceramide analogs (25 and 50 […]) by intraperitoneal injection at days 8, 10 and 12 after tumor injection. CT26 cells (2.5×10^5 cell per mouse) were injected to BALB/c mice on […]. Tumor-bearing mice were treated with the 5 ceramide analogs (25 and 50 […]) by intraperitoneal injection at days 8, 10 and 12 after tumor injection. […]. Mouse lungs were inflated with ink and fixed. […] White dots are tumor nodules. Bottom panel: quantification of tumor nodule number in the lungs.

[2] = tested on: SW480, RKO and HCT116 cells; experiment: Tumor cell apoptosis assay: ceramide analog at sublethal dose plus FasL (Annexin V/PI); assay type: cell-based, human; details: for increase of cell sensitivity to FasL-induced apoptosis: sublethal dose of analog (10 μM) plus FasL (10 ng/ml SW480, HCT; 100 ng/ml RKO); for activity in human colon carcinoma: summary statement
Procedure: FIG. 5A is a bar graph of Percent Apoptotic cell death of SW480 cells treated with the indicated ceramide analogs (10 μM), with (10 ng/ml) or without FasL and treated with FasL alone. FIG. 5B is a bar graph of Percent Apoptotic cell death of RKO cells treated with the indicated ceramide analogs (10 μM), with (100 ng/ml) or without FasL and treated with FasL alone. FIG. 5C is a bar graph of Percent Apoptotic cell death of HCT cells treated with the indicated ceramide analogs (10 μM), with (10 ng/ml) or without FasL and treated with FasL alone. % apoptotic cell death was calculated as % Annexin V^+PI^+ cells in the presence of ceramide analogs plus MegaFasL−% Annexin V^+PI^+ cells in the control group. Column: mean; Bar: SD.
Tumor cells were cultured in the presence of MegaFasL at the indicated concentrations as previously described Hu, X. et al. Deregulation of apoptotic factors Bcl-xL and Bax confers apoptotic resistance to myeloid-derived suppressor cells and contributes to their persistence in cancer. J Biol Chem 288, 19103-19115, doi:10.1074/jbc.M112.434530M112.434530 [pii] (2013). FasL (Mega-Fas Ligand®, kindly provided by Drs. Steven Butcher and Lars Damstrup at Topotarget A/S, Denmark) is a recombinant fusion protein that consists of three human FasL extracellular domains linked to a protein backbone comprising the dimmer-forming collagen domain of human adiponectin. The Mega-Fas Ligand was produced as a glycoprotein in mammalian cells using Good Manufacturing Practice compliant process in Topotarget A/S (Copenhagen, Denmark). For tumor cell apoptosis analysis, cells were stained with Alexa Fluor 647 Annexin V (Biolegend) in Annjixin V-binding buffer (10 mM Hepes, pH 7.4, 140 mM NaCl, 2.5 mM CaCl2) for 30 min at 4° C. Propidium Iodide was then added to the cell suspension, and cells were analyzed by flow cytometry as previously described Bardhan, K. et al. IFNgamma induces DNA methylation-silenced GPR109A expression via pSTAT1/p300 and H3K18 acetylation in colon cancer. Cancer Immunol Res, doi:canimm.0164.2014 [pii]2326-6066.CIR-14-0164 [pii] 10.1158/2326-6066.CIR-14-0164 (2015).
Next, the efficacy of the ceramide analogs was tested at their sublethal doses in enhancement of FasL-induced apoptosis using SW480, RKO and HCT116 cells. Tumor cells were treated with a sublethal dose of each of these 20 ceramide analogs along or ceramide analog plus FasL, and analyzed for apoptosis. […] Therefore, six novel ceramide analogs were identified that can effectively enhance the efficacy of FasL-induced apoptosis in human colon carcinoma cells.

[3] = tested on: SW480 cells; experiment: Cell viability (MTT) assay, cytotoxicity of ceramide analogs; assay type: cell-based, human; details: three days, at the doses tested
Procedure: FIG. 4 is a bar graph of Percent Cell Viability (MTT assay) showing. cytotoxicity of the indicated ceramide analogs to human colon carcinoma cells. Human colon carcinoma SW480 cells were cultured in the presence of ceramide analogs at the indicated concentrations for three days. Cell viability was determined by MTT assays. % cell viability of control was set at 100% and cell viability of treatment groups was calculated as % of the control groups. IC50 was calculated using GraphPad Prism program.
Cells were seeded in 96-well plates at 2×10^3 cells/well in 100 μl culture medium for 3 days. Cell viability assays were performed using the MTT cell proliferation assay kit (ATCC, Manassas, Va.) according to the manufacturer's instructions.
The structures and functions of ceramide analogs Cheng, J. C. et al. Radiation-induced acid ceramidase confers prostate cancer resistance and tumor relapse. J Clin Invest 123, 4344-4358, doi:10.1172/JCI6479164791 [pii] (2013); and Paschall, A. V. et al. Ceramide targets xIAP and cIAP1 to sensitize metastatic colon and breast cancer cells to apoptosis induction to suppress tumor progression. BMC Cancer 14, 24, doi:10.1186/1471-2407-14-241471-2407-14-24 [pii] (2014) were analyzed and synthesized twenty ceramide analogs to be developed into Fas sensitizers (Supplemental Table 1). […]

[4] = tested on: CT26 tumor cells; experiment: CTL cytotoxicity assay with perforin-deficient CTLs (pfpCTL); assay type: cell-based; details: analog alone at the dose used
Procedure: FIG. 7A is a line graph of percent tumor cell lysis verus pfpCTLs E/T ratio. Cells were gated for CFSE^+ tumor cells. The gated cells were then analyzed for PI^+ cells. % tumor cell lysis was calculated as % CFSE^+PI^+ cells in the presence of CTLs−% CFSE^+PI^+ cells in the absence of CTLs. FIG. 7B is a bar graph of percent tumor cell lysis Cells were gated for CFSE^+ tumor cells. The gated cells were then analyzed for PI^+ cells. % tumor cell lysis was calculated as % CFSE^+PI^+ cells in the presence of ceramide analogs or ceramide analogs plus pfpCTLs−% CFSE^+PI^+ cells in the absence of ceramide analogs or ceramide analogs plus pfpCTLs. Column: mean; Bar: SD. Bolded ** indicated p<0.01 between ceramide analog+pfpCTLs group and pfpCTLs only group, and green ** indicates p<0.01 between ceramide analog+pfpCTLs group and ceramide analog only group. Column: mean; Bar: SD.
Perforin-deficient CTLs were generated and maintained by weekly stimulation with AH1 peptide as previously described Liu, K., Caldwell, S. A., Greeneltch, K. M., Yang, D. & Abrams, S. I. CTL Adoptive Immunotherapy Concurrently Mediates Tumor Regression and Tumor Escape. J Immunol 176, 3374-3382 (2006). […] Cells were analyzed immediately by flow cytometry. CFSE^+ tumor cells were gated and analyzed for PI^+ cells. […]

Compound	established colon carcinoma lung metastasis (tumor nodules/lung) [1]	increase of cell sensitivity to FasL-induced apoptosis [2]	activity in human colon carcinoma [2]	cytotoxicity [3]	cytotoxicity to CT26 tumor cells [4]
CCCCCCCCCCCCN(C)C(=O)[C@@H](NC(=O)c1cc2c(F)cccc2[nH]1)[C@@H](C)O [IG19]	suppress	effectively increase; also recorded: significant efficacy	–	–	–
CCCCCCCCCCCCN(C)C(=O)[C@@H](NC(=O)c1cc2cc(C)ccc2[nH]1)[C@@H](C)O [IG9]	–	–	potent activity	–	–
CCCCCCCCCCCCN(C)C(=O)[C@@H](NC(=O)c1cc2cc(Br)ccc2[nH]1)[C@@H](C)O [IG10]	–	–	–	no cytotoxicity	–
CCCC/C=C/CCCCCCCC(=O)N[C@H](CO)[C@@H](O)c1ccc([N+](=O)[O-])cc1 [IG20, (E)-N-((1S,2R)-1,3-dihydroxy-1-(4-nitrophenyl)propan-2-yl)tetradec-9-enamide]	–	–	–	no cytotoxicity	–
CCCCCCCCCCCCCNC(=O)[C@@H](NC(=O)c1cc2cc(OC)ccc2[nH]1)[C@@H](C)O [IG7]	suppress	effectively increase; also recorded: significant efficacy	potent activity	–	–
CCCCCCCCCCCCN(C)C(=O)[C@@H](NC(=O)c1cc2cc(F)ccc2[nH]1)[C@@H](C)O [IG14]	–	effectively increase; also recorded: significant efficacy	potent activity	–	–
CCCCCCCCCCCCCNC(=O)[C@@H](NC(=O)c1cc2c(OC)cccc2[nH]1)[C@@H](C)O [IG8]	–	effectively increase; also recorded: significant efficacy	potent activity	–	high cytotoxicity
CCCCCCCC/C=C\CCCCCCCC(=O)N[C@H](CO)[C@@H](O)c1ccc([N+](=O)[O-])cc1 [IG17, N-((1S,2R)-1,3-dihydroxy-1-(4-nitrophenyl)propan-2-yl)oleamide]	suppress	effectively increase; also recorded: significant efficacy	potent activity	–	–
CCCCCCCCCCCCCNC(=O)[C@@H](NC(=O)c1cc2c(F)cccc2[nH]1)[C@@H](C)O [IG4]	suppress	effectively increase; also recorded: significant efficacy	potent activity	–	–
